In patent US9820992B2, “Method of treating non-small-cell lung cancer using pharmaceutical formulation containing thienotriazolodiazepine compounds” (ONCOETHIX GmbH, priority 2013, dated 2017):
“Also recorded” adds a separate entry of the source.

Assays:
H3122 tumor = H3122 tumor growth in nude mice; format: in vivo, male athymic NMRI nude mice; details: gavage, continuous
Experimental: 5.10^6 H3122 cells were injected in the flank of male athymic NMRI nude mice, and mice were randomized to 3 groups (8 mice/group) when tumor volume reach 100 mm^3; vehicle (PBS, once daily, oral continuous), Compound (1-1) (50 mg/kg/bidaily, gavage, continuous), or crizotinib (25 mg/kg/daily, gavage, continuous).

A549 cells [1] = experiment: MTT cell viability/proliferation assay, 72 h; format: cell-based
Experimental: (§1) Five established NSCLC cell lines (i.e. H2228, H3122, A549, HOP62 and HOP92) were exposed to increasing doses of compound (1-1) (OncoEthix SA, Switzerland). Effect on cell viability was determined by the MTT assay after 72 h exposure. The growth inhibition (GI) 50% values were determined by GraphPad Prism 5.0 software. And protein levels were analyzed by Western Blot using commercial antibodies. RNA was extracted with the Qiagen RNAEasy kit and reverse-transcribed using the Superscript First-Strand Synthesis System for RT-PCR kit following manufacturer's instructions. RT-PCR was performed using Fast SYBR Green Master Mix on a StepOnePlus Real-Time PCR System.
(§2) Five established NSCLC cell lines, HOP62, HOP92, A549, H2228, and H3122 harboring different oncogenic mutations for KRAS, LKB1, TP53 and ALK (FIG. 19) were exposed to increasing doses of compound (1-1) (OncoEthix SA, Switzerland) for 72 h and cell proliferation was evaluated by MTT assays. Results represent the mean±95% CI of at least 3 independent experiments performed in triplicate. Protein levels were analyzed by Western blot using commercial antibodies. For cell cycle analysis cells were stained with PI and analyzed using a FACScan flow cytometer after 24 h of treatment. RT-PCR was performed using Fast SYBR Green Master Mix on a StepOnePlus Real-Time PCR System. Results represent the mean±SD of at least 2 independent experiments, where *p<0.05 versus control cells (0.1% DMSO), employing Anova followed by Dunnett's Multiple Comparison Test. Concomitant compound (1-1) combination studies were performed in cell lines exposed for 48 h to increasing doses of compound (1-1) alone or in combination with everolimus or crizotinib, and assessed using the Chou & Talalay method. Combination Index (CI) was determined by median effect plot analysis using CalcuSyn software. CI<1 synergy, CI=1 additivity and CI>1 antagonist effects. Results represent the median and range of 3 independent experiments performed in triplicate.

H2228 cells [2] = experiment: MTT cell viability/proliferation assay, 72 h; format: cell-based; details: Homo sapiens, NCI-H2228, H2228 cells (EML4-ALK-positive), 72-h exposure
Experimental: as §1, §2

H3122 cells = experiment: MTT cell viability/proliferation assay, 72 h; format: cell-based; details: Homo sapiens, NCI-H3122, H3122 cells (EML4-ALK-positive), 72-h exposure
Experimental: as §1, §2

[3] = tested on: NSCLC cell lines HOP62, HOP92, A549, H2228, H3122; experiment: MTT proliferation assay in NSCLC cell line panel; format: cell-based; details: five NSCLC cell lines
Experimental: as §2

NSCLC cells = experiment: Cell cycle analysis (PI staining, flow cytometer); format: cell-based; details: 24 h exposure; dihydrate
Experimental: as §2

STAT3 = experiment: Cell signaling pathways assessment (Western blot); format: cell-based; details: down-regulation after 24 h and up to 72 h exposure
Experimental: as §1

C-MYC = C-MYC protein and mRNA levels in NSCLC cell lines (Western blot, RT-PCR); format: cell-based; details: NSCLC cell lines (Example 7)
Experimental: as §1

[4] = tested on: N-MYC mRNA in H3122 cells; experiment: N-MYC mRNA levels in H3122 cells (RT-PCR); format: cell-based
Experimental: as §1
Five established NSCLC cell lines, HOP62, HOP92, A549, H2228, and H3122 harboring different oncogenic mutations for KRAS, LKB1, TP53 and ALK (FIG. 19) were exposed to increasing doses of compound (1-1) (OncoEthix SA, Switzerland) for 72 h and cell proliferation was evaluated by MTT assays. […] Protein levels were analyzed by Western blot using commercial antibodies. For cell cycle analysis cells were stained with PI and analyzed using a FACScan flow cytometer after 24 h of treatment. […] Concomitant compound (1-1) combination studies were performed in cell lines exposed for 48 h to increasing doses of compound (1-1) alone or in combination with everolimus or crizotinib, and assessed using the Chou & Talalay method. […]

C-MYC in HOP92 cells = experiment: C-MYC mRNA and protein levels in HOP92 cells; format: cell-based; details: 500 nM, after 4 hours, maintained after 24 hours
Experimental: as §2

[5] = tested on: N-MYC mRNA in HOP62 cells; experiment: N-MYC mRNA levels in HOP62 cells (RT-PCR); format: cell-based; details: 500 nM, after 4 hours, maintained after 24 hours
Experimental: as §2

H2228 cells [6] = experiment: Concomitant combination with crizotinib (Chou & Talalay); format: cell-based; details: combined with crizotinib, 48 h concomitant exposure, CI<1 synergy, CI=1 additivity, CI>1 antagonist, called additive
Experimental: as §2

A549 cells [7] = experiment: Concomitant combination with everolimus (Chou & Talalay); format: cell-based; details: 48 h concomitant
Experimental: as §2

H2228 cells [8] = experiment: as above; format: cell-based; details: 48 h concomitant
Experimental: as §2

HOP62 cells = experiment: as above; format: cell-based; details: 48 h concomitant
Experimental: as §2

HOP92 cells = experiment: as above; format: cell-based; details: 48 h concomitant
Experimental: as §2

Compound | tumor growth in H3122 tumor bearing-mice (H3122 tumor; 25 mg/kg/daily) | effects in A549 cells (A549 cells [1]; A549 cells with concurrent KRAS and LKB1 mutations) | GI50 (A549 cells [1]; Homo sapiens, A549, EML4-ALK-negative (A49) cell line, 72 h exposure, MTT) [nM] | GI50 (H2228 cells [2]) [nM] | GI50 (H3122 cells) [nM] | GI50 ([3]; 72 h-exposure, read-out: GI50 values across the cell line panel) [nM] | cytostatic effects in NSCLC cell lines ([3]; 72 h) | percentage of cells in S phase (NSCLC cells) | STAT3 regulation (STAT3) | C-MYC protein and mRNA levels (C-MYC) | N-MYC mRNA levels ([4]; EML4-ALK-positive H3122 cells (Example 7)) | N-MYC mRNA levels ([4]; H3122 cells, 500 nM, after 4 hours, maintained after 24 hours) | C-MYC mRNA and protein levels (C-MYC in HOP92 cells) | N-MYC mRNA levels [5] | Combination Index (CI) (H2228 cells [6]) | combination effect with everolimus (A549 cells [7]) | combination effect with everolimus (H2228 cells [8]) | combination effect with everolimus (HOP62 cells) | combination effect with everolimus (HOP92 cells) | tumor growth in H3122 tumor bearing-mice (H3122 tumor; 50 mg/kg/bidaily, vs vehicle, dihydrate)
C[C@@H](Oc1cc(-c2cnn(C3CCNCC3)c2)cnc1N)c1c(Cl)ccc(F)c1Cl [crizotinib, reference compound] | inhibited tumor growth to a similar extent |  |  |  |  |  |  |  |  |  |  |  |  |  |  |  |  |  |  | 
Cc1sc2c(c1C)C(c1ccc(Cl)cc1)=N[C@@H](CC(=O)Nc1ccc(O)cc1)c1nnc(C)n1-2 [Compound (1-1), 2-[(6S)-4-(4-chlorophenyl)-2,3,9-trimethyl-6H-thienol[3,2-f]-[1,2,4]triazolo[4,3-a][1,4]diazepin-6-yl]-N-(4-hydroxyphenyl)acetamide dihydrate] |  | abrogate compound (1-1) effects | 432 | 629 | 627 | 100 to 700 | cytostatic effects in 4 out of 5 NSCLC cell lines | reduction in the percentage of cells in S phase; also recorded: reduction of the S phase cell fraction | transient upregulation of STATS with a subsequent down-regulation | not altered | down-regulation | rapid downregulation | rapid downregulation | rapid downregulation | 0.9 | additive/synergistic effects | additive/synergistic effects | additive/synergistic effects | additive/synergistic effects | inhibited tumor growth to a similar extent as crizotinib; also recorded: slowed tumor progression
